We go through 17 molecules from publication doi:10.1101/2025.08.20.671340v1 (biorxiv, 2025).

What is called half-life is how long it takes for the measured level to halve. Read a high half-life as slow loss. As usually defined, the IC50 is the concentration at which inhibition is half-maximal. Low values mean greater potency, high ones weaker potency.

A short description of one data set: physchem. The conditions noted are these: pbs.
In data set [1] the target is T1, hAChE (human acetylcholinesterase) (Homo sapiens, UniProt P22303). Nature of the data set: enzyme inhibition assay. It counts as biochemical.
Data set [2] concerns the target T1, hAChE (human acetylcholinesterase). Nature of the data set: enzyme inhibition assay. The format is biochemical. The conditions noted are these: footnote d not shown: inhibition or residual activity and concentration unknown.
Data set [3] has the same target. Nature of the data set: biochemical.

T1 sequence (P22303 32-614): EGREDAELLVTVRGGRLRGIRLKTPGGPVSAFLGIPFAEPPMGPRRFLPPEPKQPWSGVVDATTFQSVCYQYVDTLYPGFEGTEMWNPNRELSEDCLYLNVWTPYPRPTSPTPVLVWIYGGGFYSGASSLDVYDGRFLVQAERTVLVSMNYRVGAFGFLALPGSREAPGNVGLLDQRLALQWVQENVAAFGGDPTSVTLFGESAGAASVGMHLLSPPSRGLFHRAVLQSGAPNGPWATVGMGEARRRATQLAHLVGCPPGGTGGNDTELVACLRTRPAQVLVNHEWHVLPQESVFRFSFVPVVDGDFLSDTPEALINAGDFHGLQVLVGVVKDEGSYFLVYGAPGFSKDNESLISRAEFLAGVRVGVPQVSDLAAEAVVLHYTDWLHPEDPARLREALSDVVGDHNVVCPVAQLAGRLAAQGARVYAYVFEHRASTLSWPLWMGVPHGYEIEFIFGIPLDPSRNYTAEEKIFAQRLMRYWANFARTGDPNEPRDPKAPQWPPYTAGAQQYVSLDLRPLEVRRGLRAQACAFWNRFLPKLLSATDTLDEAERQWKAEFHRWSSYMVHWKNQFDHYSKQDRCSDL

In the case of `CN(CCC1CCCCCC1)Cc1c[nH]c2c(N(C)C(=O)On3ccnc3)cccc12` [compound 14], the half-life in the data set “physchem” was ~18 days. The same molecule yielded a half-inhibitory concentration (IC50) in data set [1] of 24.2 µM.

As for `CN(CCC1CCCCCC1)Cc1c[nH]c2c(N(C)C(=O)OCC(F)(F)F)cccc12` [compound 7], the “% (footnote d)” value in data set [2] amounted to 51.6 ± 0.8%.

For `CN(CCC1CCCCCC1)Cc1c[nH]c2c(N(C)C(=O)F)cccc12` [compound 6], the half-life in “physchem” was ~4 days. In data set [1], half-maximal inhibition (IC50) was put at 0.177 ± 0.006 µM.

Molecule `CC[Se]C(=O)N(C)c1cccc2c(CN(C)CCC3CCCCCC3)c[nH]c12` [compound 24] registered an IC50 in data set [1] of 30.2 µM.

`CN(CCC1CCCCCC1)Cc1c[nH]c2c(N(C)C(=O)OC(C(F)(F)F)(C(F)(F)F)C(F)(F)F)cccc12` [compound 9] returned an IC50 in data set [1] of 6.7 µM. This IC50 lies about 4.5-fold lower than the previous one.

Turning to `CN(CCC1CCCCCC1)Cc1c[nH]c2c(N(C)C(=O)n3cnc([N+](=O)[O-])c3)cccc12` [compound 27], the IC50 in data set [1] came out at 15.9 µM.

With `CN(CCC1CCCCCC1)Cc1c[nH]c2c(SC(=O)N(C)C)cccc12` [compound 2], half-maximal inhibition in data set [1] (IC50) was put at 11.1 µM.

Take `CN(CCC1CCCCCC1)Cc1c[nH]c2c(N(C)C(=O)n3ccnc3)cccc12` [compound 26]: the half-life in the data set “physchem” was ~14 days. In data set [1], this molecule returned a half-maximal inhibitory concentration (IC50) of 47.3 µM.

For `CN(CCC1CCCCCC1)Cc1c[nH]c2c(N(C)C(=O)OC(C(F)(F)F)C(F)(F)F)cccc12` [compound 8], the IC50 in data set [1] turned out to be 25.8 µM.

On to `CN(CCC1CCCCCC1)Cc1c[nH]c2c(N(C)C(=O)Sc3nncn3C)cccc12` [compound 22], for which, in the data set “physchem”, the half-life was ~25 days. In data set [1], this molecule displayed an IC50 of 21.8 µM.

In turn, `CN(CCC1CCCCCC1)Cc1c[nH]c2c(N(C)C(=O)Oc3ccccc3)cccc12` [compound 10] gave an IC50 in data set [1] of 21.2 µM. This counts as double-digit micromolar.

For `CN(CCC1CCCCCC1)Cc1c[nH]c2c(NC(=O)n3ccnc3)cccc12` [compound 33, N-(3-(((2-Cycloheptylethyl)(methyl)amino)methyl)-1H-indol-7-yl)-1H-imidazole-1-carboxamide], in data set [3], half-maximal inhibition (IC50) was put at 17.3 µM. That is a double-digit micromolar value.

Turning to `CN(CCC1CCCCCC1)Cc1c[nH]c2c(N(C)C(=O)Sc3nnnn3C)cccc12` [compound 23], in the data set “physchem”, the half-life was ~38 days. This molecule also showed an IC50 in data set [1] of 16.9 µM.

With `CN(CCC1CCCCCC1)Cc1c[nH]c2c([Se]C(=O)N(C)C)cccc12` [compound 3], the IC50 in data set [1] is 9.75 µM.

Molecule `CN(CCC1CCCCCC1)Cc1c[nH]c2c(N(C)C(=O)Oc3c(F)c(F)c(F)c(F)c3F)cccc12` [compound 11] had an IC50 in data set [1] of 0.788 ± 0.176 µM. Against the preceding molecule, the IC50 is about 12-fold lower.

Turning to `CN(CCC1CCCCCC1)Cc1c[nH]c2c(N(C)C(=O)[Se]c3ccccc3)cccc12` [compound 25], the “% (footnote d)” value in data set [2] is on record as 53.6 ± 2.7%.

The molecule `CN(CCC1CCCCCC1)Cc1c[nH]c2c([Te]C(=O)N(C)C)cccc12` [compound 4] showed an IC50 in data set [1] of 13.2 µM.
